Experimental data: patent publication US20210053957A1, “HERBICIDAL COMPOUNDS” (SYNGENTA PARTICIPATIONS AG, priority 2018, published 2021)

Legend:
Assay in all cases: Post-emergence efficacy, glasshouse spray test
Type in all cases: in vivo
[1] = system: Amaranthus palmeri (AMAPA); settings: Amaranthus palmeri, post-emergence, 312 h; Application Rate 500 g/Ha; evaluated after 13 days; read-out: Control of weed species after post-emergence application, AMAPA (100=total damage to plant; 0=no damage to plant)
In short: (§1)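 Sow in standard soil; grow 14 d at 24/16° C, 14 h light, 65% humidity; spray aqueous dilution of IF50 formulation; return to glasshouse, water twice daily; score injury 0–100 at day 13.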

[2] = system: Chenopodium album (CHEAL); settings: Chenopodium album, post-emergence, 312 h; Application Rate 500 g/Ha; evaluated after 13 days; read-out: Control of weed species after post-emergence application, CHEAL (100=total damage to plant; 0=no damage to plant)
In short: as §1

[3] = system: Digitaria sanguinalis (DIGSA); settings: Digitaria sanguinalis, post-emergence, 312 h; Application Rate 500 g/Ha; evaluated after 13 days; read-out: Control of weed species after post-emergence application, DIGSA (100=total damage to plant; 0=no damage to plant)
In short: as §1

[4] = system: Echinochloa crus-galli (ECHCG); settings: Echinochloa crus-galli, post-emergence, 312 h; Application Rate 500 g/Ha; evaluated after 13 days; read-out: Control of weed species after post-emergence application, ECHCG (100=total damage to plant; 0=no damage to plant)
In short: as §1

Eleusine indica (ELEIN) = settings: Eleusine indica, post-emergence, 312 h; Application Rate 500 g/Ha; evaluated after 13 days; read-out: Control of weed species after post-emergence application, ELEIN (100=total damage to plant; 0=no damage to plant)
In short: as §1

[5] = system: Euphorbia heterophylla (EPHHL); settings: Euphorbia heterophylla, post-emergence, 312 h; Application Rate 500 g/Ha; evaluated after 13 days; read-out: Control of weed species after post-emergence application, EPHHL (100=total damage to plant; 0=no damage to plant)
In short: as §1

[6] = system: Ipomoea hederacea (IPOHE); settings: Ipomoea hederacea, post-emergence, 312 h; Application Rate 500 g/Ha; evaluated after 13 days; read-out: Control of weed species after post-emergence application, IPOHE (100=total damage to plant; 0=no damage to plant)
In short: as §1

Lolium perenne (LOLPE) = settings: Lolium perenne, post-emergence, 312 h; Application Rate 500 g/Ha; evaluated after 13 days; read-out: Control of weed species after post-emergence application, LOLPE (100=total damage to plant; 0=no damage to plant)
In short: as §1

Setaia fabei (SETFA) = settings: Setaria faberi, post-emergence, 312 h; Application Rate 500 g/Ha; evaluated after 13 days; read-out: Control of weed species after post-emergence application, SETFA (100=total damage to plant; 0=no damage to plant)
In short: as §1

| SMILES | pest or weed control at 500 g/ha [1] [%] | pest or weed control at 500 g/ha [2] [%] | pest or weed control at 500 g/ha [3] [%] | pest or weed control at 500 g/ha [4] [%] | pest or weed control at 500 g/ha (Eleusine indica (ELEIN)) [%] | pest or weed control at 500 g/ha [5] [%] | pest or weed control at 500 g/ha [6] [%] | pest or weed control at 500 g/ha (Lolium perenne (LOLPE)) [%] | pest or weed control at 500 g/ha (Setaia fabei (SETFA)) [%] |
| --- | --- | --- | --- | --- | --- | --- | --- | --- | --- |
| Cc1coc(-c2cc[n+](CC(=O)O)nc2)n1 [Compound A132] | 90 | 70 | 90 | 90 | 90 | 70 | 10 | 50 | 80 |
| COC(=O)C[n+]1ccc(-c2nc(C)co2)cn1 [Compound A133] | 0 | 0 | 20 | 10 | 10 | 0 | 10 | 0 | 0 |
| Cc1coc(-c2cc[n+](CCOS(=O)(=O)[O-])nc2)n1 [Compound A134] | 90 | 30 | 60 | 70 | 80 | 70 | 50 | 40 | 70 |
| Cc1coc(-c2cc[n+](CCCC(=O)O)nc2)n1 [Compound A135] | 90 | 20 | 90 | 90 | 80 | 90 | 10 | 40 | 90 |
| Cc1coc(-c2cc[n+](CCCS(=O)(=O)[O-])nc2)n1 [Compound A136] | 70 | 30 | 70 | 40 | 60 | 70 | 20 | 60 | 80 |
| CNC(=O)c1oc(-c2cc[n+](CCC(=O)OC)nc2)nc1C [Compound A137] | 20 | 10 | 50 | 40 | 30 | 20 | 10 | 10 | 30 |
| O=C(O)CC[n+]1ccc(-c2cnns2)cn1 [Compound A138] | 90 | 40 | 60 | 40 | 70 | 100 | 70 | 0 | 30 |
| O=C(O)CC[n+]1ccc(-c2csnn2)cn1 [Compound A139, 3-[4-(thiadiazol-4-yl)pyridazin-1-ium-1-yl]propanoic acid 2,2,2-trifluoroacetate] | 80 | 70 | 70 | 60 | 70 | 100 | 60 | 10 | 60 |
| Cc1nnc(-c2cc[n+](CCC(=O)O)nc2)o1 [Compound A140] | 10 | 0 | 70 | 20 | 90 | 0 | 0 | 10 | 70 |
| Nc1nsc(-c2cc[n+](CCS(=O)(=O)[O-])nc2)n1 [Compound A141] | 100 | 100 | 10 | 30 | 10 | 100 | 100 | 30 | 50 |
| O=C(O)CC[n+]1ccc(-c2ncsn2)cn1 [Compound A142, 3-[4-(1,2,4-thiadiazol-3-yl)pyridazin-1-ium-1-yl]propanoic acid 2,2,2-trifluoroacetate] | 100 | 90 | 100 | 100 | 100 | 100 | 30 | 90 | 90 |
| O=S(=O)([O-])CC[n+]1ccc(-c2ncsn2)cn1 [Compound A143] | 100 | 90 | 100 | 100 | 100 | 100 | 60 | 100 | 90 |
